Patent US11738099B2, “Molecular probes and methods of use” (CASE WESTERN RESERVE UNIVERSITY, priority 2014, dated 2023)
“Also recorded” adds a separate entry of the source. One block for each compound: values may come before it. Bridges are numbered along the chain shown (N, C = ends). Where no end group is shown, it is not given here.

Tests used:
[1] = Relaxivity at 1.5T in water, 37° C.; assay type: physicochemical
Procedure: Relaxivity is an important parameter for an MR contrast agent. It reflects how the relaxation rate of the surrounding water proton changes as a function of concentration, and it is directly associated with the agent's contrast enhancing capability during imaging. The relaxivity of the 4 contrast agents was tested at 37° C. in water and compared to Gd(HP-DO3A), Gd-DOTA and ZD2-Gd(HP-DO3A) (FIG. 26). […] Compared to Gd(HP-DO3A), Gd-DOTA, the size increase of the targeted contrast agents due to the peptides and PEG spacer could result in an increase of τR,^[42, 43] thus leading to higher relaxivities.

TGFβ induced 4T1 cells = assay: Binding of Cy5 probes to TGFβ induced 4T1 cells in vitro; assay type: cell-based; settings: cell culture
Procedure: As tumor cells produce EDB-FN to promote its migration, we further validated if Cy5 labeled l-ZD2 (l-ZD2-Cy5) can bind to TGFβ induced 4T1 cells in vitro. […] To explain this, we hypothesize that in this form of cell culture, no clot formation can take action to provide binding sites for CREKA-Cy5. To validate our hypothesis, we further produced a 3D culture system that mimics the “soil” of metastatic tumor. In the 3D culture system, 4T1 cells were cultured in a microenvironment containing TGFβ, collagen, and fibrin. […] In overall, these evidences point to the conclusion that the use of EDB-FN for targeting micrometastasis may be advantageous compared with Fibronectin-Fibrin complexes in that EDB-FN appears earlier than Fibronectin-Fibrin in the pre-metastatic niche.

EDB fragment = EDB fragment (Homo sapiens, UniProt P02751); assay: Peptide ELISA of HRP-conjugated peptides on coated EDB; assay type: binding; settings: HRP conjugates
Procedure: A linear version of ZD2 (CTVRTSADA) SEQ ID NO: 42 was synthesized so that sulfhydryl group on cysteine could be used for conjugation with maleimide-activated […] (Sigma-Aldrich). Conjugation was carried out as instructed in the manual. The product of conjugation, ZD2-HRP, was used for peptide ELISA assay after coating a 96-well plate with purified EDB. 0.5% BSA in PBS was used to block non-specific binding for later steps. 0.39 μM to 50 μM of ZD2-HRP was incubated with coated EDB for an hour followed by extensive washing with TBST (0.1%). ABTS substrate was added subsequently and allowed to react for 30 min before the absorbance of solution in each well were measured at 415 nm. Non-coated wells added with ABTS were used as blank.
Cyclic ZD2 peptide (CTVRTSADC) (SEQ ID NO: 10) was synthesized using standard solid phase peptide chemistry and was characterized by MALDI-TOF mass spectrometry (FIG. 1C). The peptide was then labeled with a fluorescence chromophore cyanine 5 (Cy5) through a short PEG linker (NH2—(CH2CH2O)—CH2CH2COOH) to give a peptide fluorescence probe ZD2-Cy5. The peptide was also conjugated to peroxidase (ZD2-HRP) and the binding affinity of the peptide to EDB fragment was determined using peptide ELISA assay.
Similarly, CERAK-HRP is synthesized as a control.

[2] = tested on: PC3 prostate tumor xenografts; assay: In vivo T1-weighted MRI at 7T, PC3 tumors; set-up: species or system mouse
Procedure: (§1) All MRI experiments were performed on a horizontal 7T Bruker scanner (Bruker Biospin Co., Billerica, Mass.). Imaging experiments were performed when the tumor size reached 5-8 mm in diameter. ZD2-Gd(HP-DO3A) was administered intravenously at the dose of 0.1 mmol/kg after acquiring pre-contrast images. Post-contrast images were obtained at 10 min interval up to 30 min. The axial slices of mouse at the tumor location were acquired using T1-weighted spin echo sequence with the following parameters: field of view (FOV): 3 cm; slice thickness: 1.2 mm; interslice distance: 1.2 mm; TR: 500 ms, TE: 8.1 ms; flip angle: 90°; average: 2; matrix size: 128×128. Contrast-to-noise ratio (CNR) at each time point was calculated by subtraction of the average signal intensity in the tumor and muscle, divided by the standard deviation of image noise. ProHance® (gadoteridol) was used as a control in the imaging experiments.

[3] = tested on: LNCaP prostate tumor xenografts; assay: In vivo T1-weighted MRI at 7T, LNCaP tumors; set-up: species or system mouse; settings: 0.1 mmol/kg i.v., up to 30 min, 7T
Procedure: as §1

[4] = In vivo transmetallation and urinary excretion; set-up: species or system mouse; settings: 0.1 mmol-Gd/kg
Procedure: Balb/c mice (Charles River Laboratories, Wilmington, Mass., USA) were randomly divided into groups of ZD2-Gd(HP-DO3A) and ProHance (n=5) and placed in the metabolism cages, 48 hours prior to injection. […] Urine samples were collected at 12 h pre-injection, and then 8, 24, 48, and 72 h post-injection from the metabolic box. The collected urine samples were centrifuged at 4,000 rpm for 15 min. The concentration of Gd(III), Zn(II), Cu(H), and Ca(II) in the supernatant of the urine samples was determined by ICP-OES after appropriate dilutions.

[5] = tested on: TGFβ1-induced PC3 cancer cells; assay: In vitro cellular binding, confocal microscopy; assay type: cell-based, human
Procedure: PC3 cell line was purchased from American Type Culture Collection (ATCC, Manassas, Va., USA), and maintained in RPMI/10% FBS medium. The cells were transfected with lentivirus to express green fluorescent protein (GFP) at least 48 h prior to harvesting. To induce EMT, PC3 cells were cultured in the presence of TGFβ1 (5 ng/ml) for 5 days. For in vitro binding assay, nuclei of cells were stained with Hoechst 33342 (Life Technologies, Brooklyn, N.Y., USA) 24 h prior to adding 500 nM ZD2-Cy5. Cells were maintained in medium containing ZD2-Cy5 for 24 h and monitored with confocal microscopy. Intense shaking was avoided for live-cell binding study to retain secreted EDB-FN on the glass.

[6] = tested on: human prostate tumor sections; assay: Histological staining of human prostate sections
Excerpt: Human prostate sections were acquired from OriGene (Rockville, Md., USA). Antibodies used in this study include mouse monoclonal anti-Fibronectin antibody (BC-1, ab154210, Abcam, Cambridge, UK), Rhodamine-Red-X conjugated goat polyclonal anti-rabbit IgG (H+L) (Jackson Immuno Research Lab. West Grove, Pa., USA), and FITC conjugated goat polyclonal anti-mouse Fc (ab97264, Abcam). Frozen tissue section ([…]) imbedded in OCT was used for immunostaining and peptide staining. Paraffin embedded samples were de-paraffinized and processed with antigen retrieval using general methods. Sections were permeabilized and fixed with cold acetone followed by 0.5% BSA blocking for 1 hr at room temperature. Peptide staining was carried at the concentration of 5 uM. Slides were counter-stained with DAPI and mounted with coverslip using Prolong Gold regent (Invitrogen) before imaging. Stained tissue was imaged on an Olympus FV1000 confocal laser scanning microscope. GFP was observed using […] and the emission wavelength was read from 480 to 495 nm and represented as green. DAPI was observed using 405 nm laser and the emission wavelength was read from 450 to 470 nm and expressed as blue. Cy5.0 was observed using 635 nm laser and the emission wavelength was read from 655 to 755 nm and expressed as red.

[7] = tested on: PC3-GFP flank tumor xenografts
Procedure: NIH athymic male nude mice, age 4-5 weeks, were maintained at the Athymic Animal Core Facility at Case Western Reserve University according to the animal protocols approved by the Institutional Animal Care and Use Committee (IACUC). For whole-body fluorescent imaging study, a flank tumor model was constructed. Each mouse was subcutaneously implanted in both flanks with 2×10^6 PC3-GFP cells mixed with an equal volume of in a mixture of PBS (50 μL culture medium and 50 μL PBS). Two to three weeks after inoculation, tumors reached an average size of 0.5 cm in diameter. The mice were used for imaging with Maestro FLEX In vivo Imaging System (Cambridge Research & Instrumentation, Inc. Woburn, Mass., USA) to monitor the targeting effect of ZD2 from 0 to 24 hours. Mice were intravenously injected with ZD2-Cy5 or CERAK-Cy5 (0.3 μmol/kg body weight). After 5 h, the mice were sacrificed and the tumor and various organs were imaged with the Maestro FLEX In vivo Imaging System.

Sequence of EDB fragment (P02751 1271-1359 limits assumed): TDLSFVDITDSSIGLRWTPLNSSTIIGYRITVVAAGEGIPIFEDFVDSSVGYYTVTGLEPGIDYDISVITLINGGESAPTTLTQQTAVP

r1 [1]: 2.9 mM⁻¹ s⁻¹
Compound: O=C([O-])CN1CCN(CC(=O)[O-])CCN(CC(=O)O)CCN(CC(=O)[O-])CC1.[Gd+3] [Gd-DOTA, reference compound]

Compound: CREKA-Cy5: Cy5 probe of CREKA peptide, targets fibronectin-fibrin complexes (also: Cy5 conjugate) [reference compound]
binding to induced 4T1 cells (TGFβ induced 4T1 cells): no binding

binding to EDB protein (EDB fragment): no observable binding
Compound: CERAK-HRP: control peptide CERAK conjugated to HRP (also: conjugated to HRP) [reference compound]

Compound: GVK-(Gd-DOTA): GVK peptide, PEG spacer, p-NCS-Bz-DOTA-GA, Gd complex (GVKSYNE; also: PEG spacer, p-NCS-Bz-DOTA-GA, Gd complex)
r1 [1]: 4.3 mM⁻¹ s⁻¹

Compound: CREKA-Gd(HP-DO3A): fibrin-FN clot targeting contrast agent, CREKA (Cys-Arg-Glu-Lys-Ala) conjugated to Gd(HP-DO3A) (also: conjugated to Gd(HP-DO3A) (Gd complex)) [reference compound]
signal enhancement in PC3 tumors ([2]; 0.1 mmol/kg i.v., up to 30 min, 7T): significant contrast enhancement in the periphery | difference in signal enhancement between the PC3 and LNCaP tumors ([2]; mouse, in vivo): no significant difference | signal enhancement in LNCaP tumors [3]: significant contrast enhancement in the periphery

Compound: IGK-(Gd-DOTA): IGK peptide, PEG spacer, p-NCS-Bz-DOTA-GA, Gd complex (IGKTNTL; also: PEG spacer, p-NCS-Bz-DOTA-GA, Gd complex)
r1 [1]: 4.6 mM⁻¹ s⁻¹

Compound: ZD2-(Gd-DOTA): ZD2 peptide, PEG spacer, p-NCS-Bz-DOTA-GA, Gd complex (TVRTSAD; also: PEG spacer, p-NCS-Bz-DOTA-GA, Gd complex; listed as Homo sapiens)
r1 [1]: 4.1 mM⁻¹ s⁻¹

Compound: CNC(=O)CN(CCN(CCN(CC(=O)[O-])CC(=O)NC)CC(=O)[O-])CC(=O)[O-].[Gd+3] [Omniscan, reference compound]
urine concentration of endogenous metal ions post-injection vs pre-injection [4]: significant increase in Zn(II) concentration

tumor binding after blocking sections with BC-1 ([6]; competitive staining): inhibited
Compound: ZD2-Cy5: cyclic ZD2 (CTVRTSADC) labeled with Cy5 through a short PEG linker (CTVRTSADC-OH; disulfide 1-9 (inferred); not fully specified (N-terminus))
binding to the periphery of PC3 cells ([5]; TGFβ1-induced (post-EMT) PC3 cells, vs untreated cells): substantially more binding; also recorded: strong binding | binding to PC3 cells ([5]; uninduced cells): non-binding | staining of normal glands / BPH sections ([6]; 5 uM): unstained | staining of human prostate tumor sections ([6]; high Gleason score (GS7, GS9), 5 uM): strong staining; also recorded: strong binding | accumulation in tumor, whole-body fluorescence imaging ([7]; 1.5 h after intravenous injection): significantly high accumulation | tumor accumulation, ex vivo Cy5 signal of tumor and organs ([7]; 5 hours after injection): specific accumulation | tumor to normal (T/N) ratio of Cy5 signal ([7]; maintained for up to 24 hours, compared with CERAK-Cy5): Relatively high | accumulation in the liver or lung ([7]; mouse, in vivo): Little accumulation
